Earlier results as cited in EP3878534A1, “EXTRACTION AND BACK-EXTRACTION OF HYDROPHOBIC COMPOUNDS USING DEEP EUTECTIC SOLVENT WITH TUNEABLE HYDROPHOBICITY” (Wageningen Universiteit, priority 2020, dated 2021).

What was measured:
[1] = octanol/water, individual compound

Log Poct (Pub Chem) [1]	SMILES	pKa
3.20	CC1CCC(C(C)C)C(O)C1 (racemic) [DL-Menthol, 2-isopropyl-5-methylcyclohexanol]	
3.05	CCCCCCCC(=O)O [Octanoic acid]	

SMILES	Log Poct (Pub Chem) [1]	pKa
CCCCCC(=O)O [Hexanoic acid]	1.92	4.88
